Legend:
[1] = tested on: calluses and other forms of hyperkeratization; settings: lower concentrations; cited from earlier work
[2] = in vitro; reactive sulphydryl groups released; cited from earlier work
[3] = sodium lauryl sulfate and beeswax emulsion, pH 6.8 to 7.5; with time and accelerated tests at 40° C.; cited from earlier work
psoriatic scales = settings: in vitro incubation with allantoin solution; cited from earlier work
[4] = percutaneous absorption through dermis only human cadaver skin; assay type: in vitro ADME; settings: isolated dermis
Protocol: The formulations A.S. 1-139E, A.S. 1-81B, A.S. 1-135C, A.S. 1-135G, and A.S. 1-81 G were tested on a minimum of triplicate sections from three different cadaver skin donors and three different porcine skin donors for the percutaneous absorption of allantoin over a 48-hour dose period. The intent of this study was to mimic the absorption of allantoin directly into the capillary bed, while the dermis only study attempted to mimic the loss of skin barrier function due to broken skin or blisters. In addition, each formulation was tested in at least triplicate membrane chambers. At preselected times after dosing, the dermal receptor solution was removed in its entirety, replaced with fresh receptor solution, and an aliquot saved for subsequent analysis. The samples were analyzed for the allantoin using high performance liquid chromatography with UV and MS detection (HPLC-UV-MS). The bottom table of FIG. 3 lists a remanufacture of the 9% allantoin cream (A.S. 1-153H) to achieve a better viscosity of the final product.

Compound: NC(=O)NC1NC(=O)NC1=O (centres unmarked) [allantoin]
- concentration loosening the desmosomes (protein bridges) [1]: < 1%
- protein dispersing activity [2]: confirm the protein dispersing activity
- stability of allantoin [3]: degrades significantly
- concentration showing keratolytic activity on psoriatic scales (psoriatic scales): ≥ 0.2%
- penetration of allantoin when the skin's barrier has been damaged or removed [4]: increases significantly

Source: patent US20170105967A1, “COMPOSITIONS AND METHODS OF TREATMENT OF INFLAMMATORY SKIN CONDITIONS USING ALLANTOIN” (Scioderm, Inc., priority 2010, published 2017)
